Tests used:
[1] = In vitro water binding experiments (water retention by loss on drying); type: physicochemical; settings: for water retention (FIG. 1 and FIG. 2), in words: 3 ml substance over 10 ml distilled water, after mixing
Protocol: It was postulated that, as a result of the structure of the Meadowestolide prepared in Example 1, which has a carboxylic acid function and an ester linkage in juxtaposition to one another, a considerable degree of hydrogen-bonding and consequent water binding should be evident. Consequently, in vitro experiments to test this theory employing the Meadowestolide, as well as the carefully selected comparative control compounds described below, were conducted.
The Meadowestolide prepared in Example 1 (3 ml) and the control substances (3 ml) were carefully layered over distilled water (10 ml) using a long-nosed pipette, hand mixed for 30 seconds and photographed using a Sony Digital DSC-F505V Camera equipped with a Carl Zeiss Vario-Sonner lens. The degree of water retention was then examined by measuring the “loss on drying” (water removed from lipid phase […]). The upper lipid phase was completely removed using a long-nose pipette and analyzed for water content by “loss on drying” using a drying oven at 105 degrees centigrade until there was no longer any change in weight.

human skin [2] = assay: In vivo transepidermal water loss (TEWL), ServoMed Evaporimeter; settings: one application neat (100%) to forearm, about 2 minutes; twenty subjects; FIG. 3
From the text: (§1) TEWL and tissue hydration (of the stratum comeum) experiments were designed to evaluate the moisture retention properties of the Meadowestolide described in Example 1 in comparison with a relevant oil and a non-polymerized ester. Thus, for these studies, the natural oil to select as a control was Meadowfoam seed oil since it was the precursor oil from which the Meadowestolide was derived. […] Thus, in these experiments, the following substances were compared: (a) Meadowfoam seed oil (triglyceride oil); (b) a long-chain guerbet ester of meadowfoam fatty acid (CH3(CH2)9CH((CH)2O(CO)(CH2)22CH3)((CH2)7CH3); and (c) the Meadowestolide prepared in Example 1.
(§2) These experiments were conducted to assess and compare the moisturizing efficacy of the Meadowestolide and appropriate controls on human skin using a NOVA Technology Corporation (Portsmouth, N.H.) Dermal Phase Meter 9003 (DPM) and a ServoMed Evaporimeter (ServoMed, Sweden). The combined use of these instruments assesses the moisturizing and barrier enhancement properties of topically applied materials. […]
A ServoMed Evaporimeter was used to measure transepidermal water loss (TEWL). A hand-held probe on this meter samples the relative humidity at two points above the skin surface, thereby allowing the rate of water loss to be calculated from the humidity gradient. Measurements are recorded as g/m2/hr. […]

human skin [3] = assay: In vivo tissue hydration of the stratum corneum, Dermal Phase Meter 9003; settings: one application neat (100%) to forearm, FIG. 3
From the text: as §1, §2
In the tissue hydration experiments, a Dermal Phase Meter 9003 was used to quantify moisture content in the stratum comeum (SC) by an electrical capacitance method. […] The Dermal Phase Meter 9003 numbers are directly related to the electrical capacitance of the skin measured as picoFarads (pF).

[4] = Analytical results on purified Meadowestolide (stability); type: physicochemical
From the text: The purified Meadowestolide was identified and subsequently quantified by infrared spectroscopy and HPLC coupled with an evaporative light-scattering detector.

water bound, relative to Jojoba oil ([1]; 3 ml substance layered over 10 ml distilled water, hand mixed 30 seconds, loss on drying of lipid phase at 105 degrees centigrade, vs Jojoba oil) | water bound, relative to Meadowfoam seed oil and meadowfoam fatty acid ([1]; 3 ml substance layered over 10 ml distilled water, hand mixed 30 seconds, loss on drying of lipid phase at 105 degrees centigrade, vs Meadowfoam seed oil and meadowfoam fatty acid) | stability [4] | SMILES | water retention (FIG. 1 and FIG. 2), in words [1] | transepidermal water loss (TEWL), in words (human skin [2]) | tissue hydration, in comparison with Meadowfoam seed oil, in words (human skin [3]; about 2 minutes, twenty subjects) | hydration capability, in comparison with the guerbet ester of meadowfoam fatty acid, in words (human skin [3]; molecular sizes reasonably equivalent)
– | – | – | CCCCCCCCCCCCCCCCC=CCCCC(=O)O [meadowfoam fatty acid, CH3—(CH2)15—(CH)2—(CH2)3—COOH, reference compound] | retained a small quantity of water | – | – | –
approximately nine | approximately four | extended stability | CCCCCCCCCCCCCC/C=C/CCCC(=O)OC(CCCCCCCCCCCCCCC)CCCC(=O)O (centres unmarked) [Meadowestolide] | capable of binding water to a significant extent | very efficient in preventing water loss | improved hydration | hydration capability exceeds that of a simple ester
